Source: patent US20220348565A1, “PHARMACEUTICAL COMPOUNDS” (SENTINEL ONCOLOGY LIMITED, priority 2019, published 2022)

Tests used:
Assay in all cases: DiscoverX KinomeScreen kinase selectivity competition binding assay
[1] = biological target: T1, panel of ninety-seven kinases (Homo sapiens, UniProt Q86V86); details: PIM3; read-out: % Ctrl @ 3 μM
T1 construct: purchased DiscoverX; host or cells: T7 phage in E. coli (BL21-derived) for most kinases; HEK-293 for the rest
Description: (§1) Atropisomer A-2 has been tested for off-target activity against a panel of ninety-seven kinases distributed across the kinome at a concentration of 3 μM using the DiscoverX KinomeScreen assay. The DiscoverX KinomeScreen assay is a site-directed competition binding assay which measures the binding affinity of a compound to a kinase, by use of a solid supported control compound which can bind or capture the kinases in solution. In the absence of a kinase-inhibitor test compound, all of the kinase will bind to the solid support. If a kinase-inhibitor test compound is added to the assay mix, the amount of kinase binding to the solid support will be reduced, the extent of reduction being dependent on the potency of the test compound as a kinase inhibitor. […] For most assays, kinase-tagged T7 phage strains were grown in parallel in 24-well blocks in an E. coli host derived from the BL21 strain. E. coli were grown to log-phase and infected with T7 phage from a frozen stock (multiplicity of infection=0.4) and incubated with shaking at 32° C. until lysis (90-150 minutes). The lysates were centrifuged (6,000×g) and filtered (0.2 μm) to remove cell debris. The remaining kinases were produced in HEK-293 cells and subsequently tagged with DNA for qPCR detection. Streptavidin-coated magnetic beads were treated with biotinylated small molecule ligands for 30 minutes at room temperature to generate affinity resins for kinase assays. The liganded beads were blocked with excess biotin and washed with blocking buffer (SeaBlock (Pierce), 1% BSA, 0.05% Tween 20, 1 mM DTT) to remove unbound ligand and to reduce non-specific phage binding. […] Test compounds were prepared as 40× stocks in 100% DMSO and directly diluted into the assay. All reactions were performed in polypropylene 384-well plates in a final volume of 0.02 ml. […] The beads were then re-suspended in elution buffer (1×PBS, 0.05% Tween 20, 0.5 μM non-biotinylated affinity ligand) and incubated at room temperature with shaking for 30 minutes. The kinase concentration in the eluates was measured by qPCR. Compounds that bind the kinase active site and directly (sterically) or indirectly (allosterically) prevent kinase binding to the immobilized ligand, will reduce the amount of kinase captured on the solid support. […] The strength of binding of the test molecule to the kinase can be expressed as the percent control (% Ctrl) The compound(s) were screened at 3000 nM concentration, and results for primary screen binding interactions are reported as ‘% Ctrl’, where lower numbers indicate stronger hits in the matrix on the following page(s). [formula] • negative control=DMSO (100% Ctrl) • positive control=control compound (0% Ctrl)

[2] = biological target: T2, panel of ninety-seven kinases (Homo sapiens, UniProt Q8IYT8); details: ULK2; read-out: % Ctrl @ 3 μM
T2 construct: purchased DiscoverX; host or cells: T7 phage in E. coli (BL21-derived) for most kinases; HEK-293 for the rest
Description: as §1

[3] = biological target: T3, panel of ninety-seven kinases (Homo sapiens, UniProt P27361); details: MAPK3; read-out: % Ctrl @ 3 μM
T3 construct: purchased DiscoverX; host or cells: T7 phage in E. coli (BL21-derived) for most kinases; HEK-293 for the rest
Description: as §1

[4] = biological target: T4, panel of ninety-seven kinases (Homo sapiens, UniProt P48736); details: PIK3CG; read-out: % Ctrl @ 3 μM
T4 construct: purchased DiscoverX; host or cells: T7 phage in E. coli (BL21-derived) for most kinases; HEK-293 for the rest
Description: as §1

[5] = biological target: T5, panel of ninety-seven kinases (Homo sapiens, UniProt P43403); details: ZAP70; read-out: % Ctrl @ 3 μM
T5 construct: purchased DiscoverX; host or cells: T7 phage in E. coli (BL21-derived) for most kinases; HEK-293 for the rest
Description: as §1

[6] = biological target: T6, panel of ninety-seven kinases (Homo sapiens, UniProt P50750); details: CDK9; read-out: % Ctrl @ 3 μM
T6 construct: purchased DiscoverX; host or cells: T7 phage in E. coli (BL21-derived) for most kinases; HEK-293 for the rest
Description: as §1

[7] = biological target: T7, panel of ninety-seven kinases (Homo sapiens, UniProt P22607); details: FGFR3; read-out: % Ctrl @ 3 μM
T7 construct: purchased DiscoverX; host or cells: T7 phage in E. coli (BL21-derived) for most kinases; HEK-293 for the rest
Description: as §1

[8] = biological target: T8, panel of ninety-seven kinases (Homo sapiens, UniProt Q02156); details: PRKCE; read-out: % Ctrl @ 3 μM
T8 construct: purchased DiscoverX; host or cells: T7 phage in E. coli (BL21-derived) for most kinases; HEK-293 for the rest
Description: as §1

[9] = biological target: T9, panel of ninety-seven kinases (Homo sapiens, UniProt Q8NI60); details: CABC1; read-out: % Ctrl @ 3 μM
T9 construct: purchased DiscoverX; host or cells: T7 phage in E. coli (BL21-derived) for most kinases; HEK-293 for the rest
Description: as §1

[10] = biological target: T10, panel of ninety-seven kinases (Homo sapiens, UniProt P04629); details: NTRK1; read-out: % Ctrl @ 3 μM
T10 construct: purchased DiscoverX; host or cells: T7 phage in E. coli (BL21-derived) for most kinases; HEK-293 for the rest
Description: as §1

[11] = biological target: T11, panel of ninety-seven kinases (Homo sapiens, UniProt P31749); details: AKT1; read-out: % Ctrl @ 3 μM
T11 construct: purchased DiscoverX; host or cells: T7 phage in E. coli (BL21-derived) for most kinases; HEK-293 for the rest
Description: as §1

[12] = biological target: T12, panel of ninety-seven kinases (Homo sapiens, UniProt O14757); details: CHEK1; read-out: % Ctrl @ 3 μM
T12 construct: purchased DiscoverX; host or cells: T7 phage in E. coli (BL21-derived) for most kinases; HEK-293 for the rest
Description: as §1

[13] = biological target: T13, panel of ninety-seven kinases (Homo sapiens, UniProt Q13177); details: PAK2; read-out: % Ctrl @ 3 μM
T13 construct: purchased DiscoverX; host or cells: T7 phage in E. coli (BL21-derived) for most kinases; HEK-293 for the rest
Description: as §1

[14] = biological target: T14, panel of ninety-seven kinases (Homo sapiens, UniProt P35968); details: KDR; read-out: % Ctrl @ 3 μM
T14 construct: purchased DiscoverX; host or cells: T7 phage in E. coli (BL21-derived) for most kinases; HEK-293 for the rest
Description: as §1

[15] = biological target: T15, panel of ninety-seven kinases (Homo sapiens, UniProt P08069); details: IGF1R; read-out: % Ctrl @ 3 μM
T15 construct: purchased DiscoverX; host or cells: T7 phage in E. coli (BL21-derived) for most kinases; HEK-293 for the rest
Description: as §1

[16] = biological target: T16, panel of ninety-seven kinases (Homo sapiens, UniProt P17612); details: PRKACA; read-out: % Ctrl @ 3 μM
T16 construct: purchased DiscoverX; host or cells: T7 phage in E. coli (BL21-derived) for most kinases; HEK-293 for the rest
Description: as §1

[17] = biological target: T17, panel of ninety-seven kinases (Homo sapiens, UniProt Q13873); details: BMPR2; read-out: % Ctrl @ 3 μM
T17 construct: purchased DiscoverX; host or cells: T7 phage in E. coli (BL21-derived) for most kinases; HEK-293 for the rest
Description: as §1

[18] = biological target: T18, panel of ninety-seven kinases (Homo sapiens, UniProt O75116); details: ROCK2; read-out: % Ctrl @ 3 μM
T18 construct: purchased DiscoverX; host or cells: T7 phage in E. coli (BL21-derived) for most kinases; HEK-293 for the rest
Description: as §1

[19] = biological target: T19, panel of ninety-seven kinases (Homo sapiens, UniProt Q9UM73); details: ALK; read-out: % Ctrl @ 3 μM
T19 construct: purchased DiscoverX; host or cells: T7 phage in E. coli (BL21-derived) for most kinases; HEK-293 for the rest
Description: as §1

[20] = biological target: T20, panel of ninety-seven kinases (Homo sapiens, UniProt P27448); details: MARK3; read-out: % Ctrl @ 3 μM
T20 construct: purchased DiscoverX; host or cells: T7 phage in E. coli (BL21-derived) for most kinases; HEK-293 for the rest
Description: as §1

[21] = biological target: T21, panel of ninety-seven kinases (Homo sapiens, UniProt Q9BVS4); details: RIOK2; read-out: % Ctrl @ 3 μM
T21 construct: purchased DiscoverX; host or cells: T7 phage in E. coli (BL21-derived) for most kinases; HEK-293 for the rest
Description: as §1

T6 sequence (P50750 whole entry): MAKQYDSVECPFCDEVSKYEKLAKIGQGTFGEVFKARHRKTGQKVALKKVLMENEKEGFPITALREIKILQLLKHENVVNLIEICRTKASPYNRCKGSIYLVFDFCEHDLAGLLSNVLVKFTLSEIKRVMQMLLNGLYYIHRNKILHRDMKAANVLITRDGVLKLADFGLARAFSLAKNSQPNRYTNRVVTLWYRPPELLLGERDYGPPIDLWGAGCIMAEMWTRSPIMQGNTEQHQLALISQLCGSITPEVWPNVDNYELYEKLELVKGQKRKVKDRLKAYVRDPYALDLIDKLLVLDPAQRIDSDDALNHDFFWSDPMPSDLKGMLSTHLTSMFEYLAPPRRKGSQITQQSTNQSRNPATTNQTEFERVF
T17 sequence (Q13873 27-1038): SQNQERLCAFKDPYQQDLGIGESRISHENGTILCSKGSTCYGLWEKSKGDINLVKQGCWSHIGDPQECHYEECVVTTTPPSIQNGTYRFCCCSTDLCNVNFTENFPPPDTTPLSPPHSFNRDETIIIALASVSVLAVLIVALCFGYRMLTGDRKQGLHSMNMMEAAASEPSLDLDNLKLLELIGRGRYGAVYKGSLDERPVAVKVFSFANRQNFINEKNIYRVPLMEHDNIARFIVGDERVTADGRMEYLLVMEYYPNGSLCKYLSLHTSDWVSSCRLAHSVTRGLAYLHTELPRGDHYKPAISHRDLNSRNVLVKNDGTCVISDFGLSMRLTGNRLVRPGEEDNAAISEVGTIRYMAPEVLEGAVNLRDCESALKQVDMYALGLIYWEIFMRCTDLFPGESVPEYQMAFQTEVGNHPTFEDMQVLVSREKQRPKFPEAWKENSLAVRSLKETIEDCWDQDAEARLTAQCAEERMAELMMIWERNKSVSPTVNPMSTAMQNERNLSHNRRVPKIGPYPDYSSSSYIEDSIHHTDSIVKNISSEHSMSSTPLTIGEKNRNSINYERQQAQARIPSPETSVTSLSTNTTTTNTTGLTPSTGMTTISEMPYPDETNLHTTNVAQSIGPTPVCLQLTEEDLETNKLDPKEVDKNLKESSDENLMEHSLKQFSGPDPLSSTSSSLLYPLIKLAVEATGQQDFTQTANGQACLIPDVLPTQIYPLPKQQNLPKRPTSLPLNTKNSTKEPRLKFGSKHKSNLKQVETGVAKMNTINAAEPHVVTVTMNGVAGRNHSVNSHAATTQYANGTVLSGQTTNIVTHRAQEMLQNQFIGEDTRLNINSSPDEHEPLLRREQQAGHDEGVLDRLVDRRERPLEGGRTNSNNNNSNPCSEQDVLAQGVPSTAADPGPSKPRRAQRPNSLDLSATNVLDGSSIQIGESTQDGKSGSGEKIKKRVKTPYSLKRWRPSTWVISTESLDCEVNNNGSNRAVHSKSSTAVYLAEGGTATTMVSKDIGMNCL
T21 sequence (Q9BVS4 whole entry): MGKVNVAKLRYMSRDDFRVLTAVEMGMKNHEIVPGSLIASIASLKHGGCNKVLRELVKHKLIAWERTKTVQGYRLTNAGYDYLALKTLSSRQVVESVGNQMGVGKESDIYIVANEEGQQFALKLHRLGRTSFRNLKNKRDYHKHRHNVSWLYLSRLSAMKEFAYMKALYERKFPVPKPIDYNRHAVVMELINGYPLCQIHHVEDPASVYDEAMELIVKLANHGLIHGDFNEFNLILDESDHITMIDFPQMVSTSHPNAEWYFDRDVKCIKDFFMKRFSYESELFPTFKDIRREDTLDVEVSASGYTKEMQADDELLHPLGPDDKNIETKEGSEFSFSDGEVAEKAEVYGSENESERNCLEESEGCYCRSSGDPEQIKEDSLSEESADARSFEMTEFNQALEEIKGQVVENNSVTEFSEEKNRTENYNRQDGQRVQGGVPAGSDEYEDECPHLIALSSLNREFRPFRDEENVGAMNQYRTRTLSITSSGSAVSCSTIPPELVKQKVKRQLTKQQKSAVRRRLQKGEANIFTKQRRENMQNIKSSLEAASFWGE
T8 sequence (Q02156 whole entry): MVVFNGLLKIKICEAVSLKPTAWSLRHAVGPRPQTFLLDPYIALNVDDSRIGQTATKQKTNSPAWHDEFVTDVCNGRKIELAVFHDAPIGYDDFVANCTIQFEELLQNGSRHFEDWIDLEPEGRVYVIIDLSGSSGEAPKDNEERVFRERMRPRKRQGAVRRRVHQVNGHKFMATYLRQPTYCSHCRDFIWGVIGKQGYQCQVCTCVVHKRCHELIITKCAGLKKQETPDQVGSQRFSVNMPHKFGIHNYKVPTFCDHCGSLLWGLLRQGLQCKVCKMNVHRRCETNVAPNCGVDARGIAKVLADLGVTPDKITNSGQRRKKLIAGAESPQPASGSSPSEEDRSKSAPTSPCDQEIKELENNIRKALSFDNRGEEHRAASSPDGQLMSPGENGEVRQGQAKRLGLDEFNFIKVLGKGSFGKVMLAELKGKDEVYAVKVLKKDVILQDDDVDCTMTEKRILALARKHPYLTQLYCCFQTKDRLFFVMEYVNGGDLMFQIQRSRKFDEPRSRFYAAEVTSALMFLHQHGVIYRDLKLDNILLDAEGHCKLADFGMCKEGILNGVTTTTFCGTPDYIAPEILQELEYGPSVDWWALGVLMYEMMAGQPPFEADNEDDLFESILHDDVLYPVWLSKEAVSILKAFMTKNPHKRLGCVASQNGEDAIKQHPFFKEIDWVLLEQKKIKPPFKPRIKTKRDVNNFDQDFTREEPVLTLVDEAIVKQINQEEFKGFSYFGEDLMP
T14 sequence (P35968 20-1356): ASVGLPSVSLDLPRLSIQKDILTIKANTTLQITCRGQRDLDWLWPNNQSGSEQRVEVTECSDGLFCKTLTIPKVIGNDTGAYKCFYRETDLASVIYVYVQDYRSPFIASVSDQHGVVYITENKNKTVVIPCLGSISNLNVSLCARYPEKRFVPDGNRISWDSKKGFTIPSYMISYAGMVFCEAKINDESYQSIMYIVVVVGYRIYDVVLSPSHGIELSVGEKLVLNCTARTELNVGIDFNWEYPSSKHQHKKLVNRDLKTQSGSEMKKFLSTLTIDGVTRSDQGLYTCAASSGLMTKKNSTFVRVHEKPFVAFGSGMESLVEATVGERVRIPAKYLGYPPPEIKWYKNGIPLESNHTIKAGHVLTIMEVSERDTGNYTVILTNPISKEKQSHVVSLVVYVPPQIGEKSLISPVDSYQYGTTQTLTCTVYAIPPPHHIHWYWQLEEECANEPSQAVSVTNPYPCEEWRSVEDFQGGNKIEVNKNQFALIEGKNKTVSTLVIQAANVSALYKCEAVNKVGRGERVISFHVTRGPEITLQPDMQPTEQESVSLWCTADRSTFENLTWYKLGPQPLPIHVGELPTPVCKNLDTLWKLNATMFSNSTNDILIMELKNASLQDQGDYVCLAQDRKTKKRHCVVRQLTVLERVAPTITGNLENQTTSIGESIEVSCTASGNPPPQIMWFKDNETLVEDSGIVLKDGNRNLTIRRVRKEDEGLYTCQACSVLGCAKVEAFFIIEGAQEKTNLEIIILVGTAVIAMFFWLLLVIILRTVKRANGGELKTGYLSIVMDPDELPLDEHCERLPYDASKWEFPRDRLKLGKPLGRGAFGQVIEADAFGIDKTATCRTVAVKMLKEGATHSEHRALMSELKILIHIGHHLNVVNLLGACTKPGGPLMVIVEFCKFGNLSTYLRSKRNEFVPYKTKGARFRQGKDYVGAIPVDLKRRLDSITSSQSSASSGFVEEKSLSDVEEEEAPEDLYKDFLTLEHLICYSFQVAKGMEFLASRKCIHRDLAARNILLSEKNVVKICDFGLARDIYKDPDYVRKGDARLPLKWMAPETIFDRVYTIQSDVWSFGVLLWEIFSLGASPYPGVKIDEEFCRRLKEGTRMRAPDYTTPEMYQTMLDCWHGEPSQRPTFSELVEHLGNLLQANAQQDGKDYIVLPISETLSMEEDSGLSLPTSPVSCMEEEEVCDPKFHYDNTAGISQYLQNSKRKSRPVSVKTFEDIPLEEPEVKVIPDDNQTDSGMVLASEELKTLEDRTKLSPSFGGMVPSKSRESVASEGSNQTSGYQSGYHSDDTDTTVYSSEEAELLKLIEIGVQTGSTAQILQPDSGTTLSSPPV
T20 sequence (P27448 whole entry): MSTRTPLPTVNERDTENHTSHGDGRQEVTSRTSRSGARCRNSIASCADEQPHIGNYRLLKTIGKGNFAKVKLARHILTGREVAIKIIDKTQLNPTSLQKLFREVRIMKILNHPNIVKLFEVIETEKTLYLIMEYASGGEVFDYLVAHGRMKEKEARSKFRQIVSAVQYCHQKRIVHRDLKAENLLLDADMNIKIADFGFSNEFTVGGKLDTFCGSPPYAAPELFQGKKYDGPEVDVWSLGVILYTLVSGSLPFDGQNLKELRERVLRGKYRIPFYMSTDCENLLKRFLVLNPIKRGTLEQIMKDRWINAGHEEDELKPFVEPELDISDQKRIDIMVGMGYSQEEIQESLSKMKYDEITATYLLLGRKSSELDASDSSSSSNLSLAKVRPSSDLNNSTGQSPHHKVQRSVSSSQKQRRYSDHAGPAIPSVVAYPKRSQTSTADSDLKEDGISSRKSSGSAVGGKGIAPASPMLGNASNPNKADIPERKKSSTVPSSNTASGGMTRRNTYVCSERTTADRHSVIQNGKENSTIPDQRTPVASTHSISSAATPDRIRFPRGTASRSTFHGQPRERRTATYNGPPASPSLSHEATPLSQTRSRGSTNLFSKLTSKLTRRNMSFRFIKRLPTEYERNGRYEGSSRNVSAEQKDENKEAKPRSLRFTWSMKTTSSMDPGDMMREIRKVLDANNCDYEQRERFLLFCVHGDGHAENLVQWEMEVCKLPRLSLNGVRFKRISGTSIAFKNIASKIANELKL

CN(C)CCNC(=O)c1ccc(-c2ccc(-c3ccc(Cl)cc3)n2-c2ccccc2C(F)(F)F)cc1 (single isomer, unassigned) [Atropisomer A-2, 4-[5-(4-chlorophenyl)-1-[2-(trifluoromethyl)phenyl]pyrrol-2-yl]-N-[2-(dimethylamino)ethyl]benzamide]
percent of control kinase binding to immobilized ligand at 3 µM [1]: 98% | percent of control kinase binding to immobilized ligand at 3 µM [2]: 93% | percent of control kinase binding to immobilized ligand at 3 µM [3]: 99% | percent of control kinase binding to immobilized ligand at 3 µM [4]: 100% | percent of control kinase binding to immobilized ligand at 3 µM [5]: 92% | percent of control kinase binding to immobilized ligand at 3 µM [6]: 97% | percent of control kinase binding to immobilized ligand at 3 µM [7]: 92% | percent of control kinase binding to immobilized ligand at 3 µM [8]: 99% | percent of control kinase binding to immobilized ligand at 3 µM [9]: 63% | percent of control kinase binding to immobilized ligand at 3 µM [10]: 100% | percent of control kinase binding to immobilized ligand at 3 µM [11]: 98% | percent of control kinase binding to immobilized ligand at 3 µM [12]: 100% | percent of control kinase binding to immobilized ligand at 3 µM [13]: 100% | percent of control kinase binding to immobilized ligand at 3 µM [14]: 100% | percent of control kinase binding to immobilized ligand at 3 µM [15]: 100% | percent of control kinase binding to immobilized ligand at 3 µM [16]: 100% | percent of control kinase binding to immobilized ligand at 3 µM [17]: 82% | percent of control kinase binding to immobilized ligand at 3 µM [18]: 88% | percent of control kinase binding to immobilized ligand at 3 µM [19]: 89% | percent of control kinase binding to immobilized ligand at 3 µM [20]: 100% | percent of control kinase binding to immobilized ligand at 3 µM [21]: 100%
